Key:
[1] = test system: Rat Paw Edema; test: Rat paw edema assay (carrageenan); format: in vivo; settings: male Sprague-Dawley rats, po 1 hr before carrageenan, paw volume 3 hr later; for ED50: Rattus norvegicus
Description: Male Sprague-Dawley rats (150-200 g) are fasted overnight and are given, po, either vehicle (1% methocel or 5% Tween 80) or a test compound. One hr later, a line is drawn using a permanent marker at the level above the ankle in one hind paw to define the area of the paw to be monitored. The paw volume (V0) is measured using a plethysmometer (Ugo-Basile, Italy) based on the principle of water displacement. The animals are then injected subplantarly with 50 µl of 1% carrageenan solution in saline (FMC Corp, Maine) into the paw using an insulin syringe with a 25-gauge needle (i.e. 500 µg carrageenan per paw). Three hr later, the paw volume (V3) is measured and the increases in paw volume (V3 - VO) are calculated. The animals are sacrificed by CO2 asphyxiation and the absence or presence of stomach lesions scored. Data is compared with the vehicle-control values and percent inhibition calculated. All treatment groups are coded to eliminate observer bias.

[2] = target: T1, COX-1 (Homo sapiens, UniProt P23219); test: Assay of COX-1 activity from U937 cell microsomes; format: biochemical; settings: U937 cells, PGE2 synthesis in presence of AA
T1 construct: endogenous in cells; host or cells: U937 (human) cells; 100,000 x g microsomal fraction
T1 sequence (P23219 24-599): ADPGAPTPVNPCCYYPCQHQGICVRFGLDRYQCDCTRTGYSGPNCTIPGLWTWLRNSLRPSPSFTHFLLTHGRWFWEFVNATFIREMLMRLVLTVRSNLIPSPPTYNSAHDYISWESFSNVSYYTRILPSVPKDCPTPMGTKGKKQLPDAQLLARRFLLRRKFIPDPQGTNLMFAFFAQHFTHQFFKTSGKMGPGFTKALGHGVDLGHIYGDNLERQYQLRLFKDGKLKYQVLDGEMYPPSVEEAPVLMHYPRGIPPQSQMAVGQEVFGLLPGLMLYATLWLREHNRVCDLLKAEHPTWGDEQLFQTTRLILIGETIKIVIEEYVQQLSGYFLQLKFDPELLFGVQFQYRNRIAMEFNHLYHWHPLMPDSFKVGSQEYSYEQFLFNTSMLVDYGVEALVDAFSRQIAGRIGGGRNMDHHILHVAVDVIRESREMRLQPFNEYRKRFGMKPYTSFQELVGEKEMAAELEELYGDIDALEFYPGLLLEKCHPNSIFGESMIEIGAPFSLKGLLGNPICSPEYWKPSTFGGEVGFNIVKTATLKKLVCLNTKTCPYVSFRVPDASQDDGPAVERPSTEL
Description: Compounds are tested as inhibitors of cyclooxygenase activity in whole cell cyclooxygenase assays. […] Cells used for these assays are human osteosarcoma 143 cells (which specifically express COX-2) and human U-937 cells (which specifically express COX-1). […] U 937 cells are pelleted by centrifugation at 500 x g for 5 min and washed once with phosphate-buffered saline and repelleted. Cells are resuspended in homogenization buffer consisting of 0.1 M Tris-HCl, pH 7.4, 10 mM EDTA, 2 µg/ml leupeptin, 2 µg/ml soybean trypsin inhibitor, 2 µg/ml aprotinin and 1 mM phenyl methyl sulfonyl fluoride. […] Assays are performed in duplicate in a final volume of 250 µl. Initially, 5 µl of DMSO vehicle or drug in DMSO are added to 20 µl of 0.1 M Tris-HCl buffer, pH 7.4 containing 10 mM EDTA in wells of a 96-deepwell polypropylene titre plate. 200 µl of the microsomal preparation are then added and pre-incubated for 15 min at room temperature before addition of 25 µl of […] arachidonic acid in […] Tris-HCl and 10 mM EDTA, pH 7.4. Samples are incubated for 40 min at room temperature and the reaction is stopped by the addition of 25 µl of 1 N HCl. Samples are neutralized with 25 µl of 1 N NaOH prior to quantitation of PGE2 content by radioimmunoassay (Dupont-NEN or Amersham assay kits). […]

[3] = target: T2, COX-2 (Homo sapiens, UniProt P35354); test: Human whole blood assay, COX-2 (LPS-induced PGE2 production); format: cell-based; settings: Cox-1 U937 IC50 divided by Cox-2 Whole Blood IC50
T2 sequence (P35354 18-604): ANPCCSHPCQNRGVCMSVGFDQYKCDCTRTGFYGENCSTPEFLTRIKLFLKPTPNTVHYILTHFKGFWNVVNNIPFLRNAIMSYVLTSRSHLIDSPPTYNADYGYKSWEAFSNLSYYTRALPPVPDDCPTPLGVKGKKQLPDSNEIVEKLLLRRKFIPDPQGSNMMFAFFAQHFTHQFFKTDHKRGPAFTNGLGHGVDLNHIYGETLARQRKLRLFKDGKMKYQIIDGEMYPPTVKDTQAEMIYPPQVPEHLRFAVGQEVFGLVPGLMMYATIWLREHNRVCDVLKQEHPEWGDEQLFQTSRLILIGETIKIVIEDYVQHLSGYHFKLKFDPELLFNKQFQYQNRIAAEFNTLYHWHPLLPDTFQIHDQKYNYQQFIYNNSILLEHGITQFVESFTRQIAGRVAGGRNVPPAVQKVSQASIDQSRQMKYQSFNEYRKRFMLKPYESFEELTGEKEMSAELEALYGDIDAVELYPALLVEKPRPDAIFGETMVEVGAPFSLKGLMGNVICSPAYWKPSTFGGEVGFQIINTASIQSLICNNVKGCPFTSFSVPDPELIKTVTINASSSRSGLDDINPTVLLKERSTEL
Source text: As well, platelets in whole blood contain a large amount of the COX-1 enzyme. Immediately following blood clotting, platelets are activated through a thrombin-mediated mechanism. […] Thus, the effect of test compounds on TxB2 levels following blood clotting can be examined and used as an index for COX-1 activity. Therefore, the degree of selectivity by the test compound can be determined by measuring the levels of PGE2 after LPS induction (COX-2) and TxB2 following blood clotting (COX-1) in the same assay. Fresh blood is collected in heparinized tubes by venipuncture from both male and female volunteers. The subjects have no apparent inflammatory conditions and have not taken any NSAIDs for at least 7 days prior to blood collection. […] At the end of the incubation, the blood is centrifuged at 12,000 x g for 5 minutes to obtain plasma. A 100µL aliquot of plasma is mixed with 400µL of methanol for protein precipitation. The supernatant is obtained and is assayed for PGE2 using a radioimmunoassay kit (Amersham, RPA#530) after conversion of PGE2 to its methyl oximate derivative according to the manufacturer's procedure.

| Selectivity Ratio [3] | Structure (SMILES) | ED50 [1] | further results |
| --- | --- | --- | --- |
|  | CS(=O)(=O)c1ccc(-c2cccnc2-c2ccccc2)cc1 [Aa, reference compound] |  | Rat Paw Edema (ED50, mg/kg) [1]: >10 mg/kg; IC50 [2]: > 10 µM |
| 0.45 | CS(=O)(=O)c1ccc(-c2cccnc2-c2ccc(F)cc2)cc1 [Ab, reference compound] |  |  |
|  | CS(=O)(=O)c1ccc(-c2cc(C(F)(F)F)cnc2-c2cccnc2)cc1 [Example 7, 3-(4-Methylsulfonyl)phenyl-2-(3-pyridinyl)-5-trifluoromethylpyridine] | 1.7 mg/kg |  |
|  | Cc1ccc(-c2ncc(Cl)cc2-c2ccc(S(C)(=O)=O)cc2)cn1 [Example 23, 5-Chloro-3-(4-methylsulfonyl)phenyl-2-(2-methyl-5-pyridinyl)pyridine] | 0.6 mg/kg |  |
| >8.3 | CS(=O)(=O)c1ccc(-c2cc(Br)cnc2-c2cccnc2)cc1 [Example 32] |  |  |

— patent EP0912518B1, “SUBSTITUTED PYRIDINES AS SELECTIVE CYCLOOXYGENASE-2 INHIBITORS” (Merck Frosst Canada & Co., priority 1996, dated 1998)
